{"source": "PubChem BioAssay AID1963839", "about": "(Molecular Pharmacology Branch, DTP, NCI, 2024);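 note: spheroids exposed to compounds for 7 days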;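 for viability, T/C: 100% = DMSO vehicle-treated spheroids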", "test_system": "817829-284-R-J1-PDC complex spheroid viability", "assay": "Anticancer human tumor 817829-284-R-J1-PDC patient-derived colon adenocarcinoma cell line growth inhibition [POLQ]", "settings": "for IC50: curve of first compound; for viability, T/C: stronger effect = lower value", "outline": "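Growth inhibition in 3D: complex spheroids (tumor PDC, HUVEC, MSC) treated with POLQ inhibitor combinations; where Cmax unknown, highest tested concentration 10 microM, except SN-38 at 1 microM.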", "key": {"[1]": {"settings": "second compound 0.0316 µM, first compound 0.0316 µM"}, "[2]": {"settings": "second compound 0.0316 µM, first compound 0.1 µM"}, "[3]": {"settings": "second compound 0.0316 µM, first compound 0.316 µM"}, "[4]": {"settings": "second compound 0.0316 µM, first compound 1 µM"}, "[5]": {"settings": "second compound 0.0316 µM, first compound 3.16 µM"}, "[6]": {"settings": "second compound 0.0316 µM, first compound 10 µM"}, "[7]": {"settings": "second compound 0.1 µM, first compound 0.0316 µM"}, "[8]": {"settings": "second compound 0.1 µM, first compound 0.1 µM"}, "[9]": {"settings": "second compound 0.1 µM, first compound 0.316 µM"}, "[10]": {"settings": "second compound 0.1 µM, first compound 1 µM"}, "[11]": {"settings": "second compound 0.1 µM, first compound 3.16 µM"}, "[12]": {"settings": "second compound 0.1 µM, first compound 10 µM"}, "[13]": {"settings": "second compound 0.316 µM, first compound 0.0316 µM"}, "[14]": {"settings": "second compound 0.316 µM, first compound 0.1 µM"}, "[15]": {"settings": "second compound 0.316 µM, first compound 0.316 µM"}, "[16]": {"settings": "second compound 0.316 µM, first compound 1 µM"}, "[17]": {"settings": "second compound 0.316 µM, first compound 3.16 µM"}, "[18]": {"settings": "second compound 0.316 µM, first compound 10 µM"}, "[19]": {"settings": "second compound 1 µM, first compound 0.0316 µM"}, "[20]": {"settings": "second compound 1 µM, first compound 0.1 µM"}, "[21]": {"settings": "second compound 1 µM, first compound 0.316 µM"}, "[22]": {"settings": "second compound 1 µM, first compound 1 µM"}, "[23]": {"settings": "second compound 1 µM, first compound 3.16 µM"}, "[24]": {"settings": "second compound 1 µM, first compound 10 µM"}, "[25]": {"settings": "second compound 3.16 µM, first compound 0.0316 µM"}, "[26]": {"settings": "second compound 3.16 µM, first compound 0.1 µM"}, "[27]": {"settings": "second compound 3.16 µM, first compound 0.316 µM"}, "[28]": {"settings": "second compound 3.16 µM, first compound 1 µM"}, "[29]": {"settings": "second compound 3.16 µM, first compound 3.16 µM"}, "[30]": {"settings": "second compound 3.16 µM, first compound 10 µM"}, "[31]": {"settings": "second compound 10 µM, first compound 0.0316 µM"}, "[32]": {"settings": "second compound 10 µM, first compound 0.1 µM"}, "[33]": {"settings": "second compound 10 µM, first compound 0.316 µM"}, "[34]": {"settings": "second compound 10 µM, first compound 1 µM"}, "[35]": {"settings": "second compound 10 µM, first compound 3.16 µM"}, "[36]": {"settings": "second compound 10 µM, first compound 10 µM"}}}
{"smiles": "CC1COCCN1c1cc(-c2ccnn2C)c2ccnc(-c3ccn[nH]3)c2n1", "note": "(centres undefined) + Nc1ccc(C#CCN(C(=O)Cc2ncc(C(F)(F)F)cc2C(F)(F)F)c2ccc(F)cc2)nn1", "values": [{"measurement": "IC50", "setting": "second compound 0.0316 µM", "value": 0.0457, "unit": "µM"}, {"measurement": "IC50", "setting": "second compound 0.1 µM", "value": 0.0479, "unit": "µM"}, {"measurement": "IC50", "setting": "second compound 0.316 µM", "value": 0.0414, "unit": "µM"}, {"measurement": "IC50", "setting": "second compound 1 µM", "value": 0.0486, "unit": "µM"}, {"measurement": "IC50", "setting": "second compound 3.16 µM", "value": 0.0536, "unit": "µM"}, {"measurement": "IC50", "setting": "second compound 10 µM", "value": 0.0512, "unit": "µM"}, {"measurement": "viability, T/C", "setting": "[1]", "value": 66.6, "unit": "%"}, {"measurement": "viability, T/C", "setting": "[2]", "value": 15.1, "unit": "%"}, {"measurement": "viability, T/C", "setting": "[3]", "value": 5.55, "unit": "%"}, {"measurement": "viability, T/C", "setting": "[4]", "value": 3.95, "unit": "%"}, {"measurement": "viability, T/C", "setting": "[5]", "value": 3.46, "unit": "%"}, {"measurement": "viability, T/C", "setting": "[6]", "value": 3.51, "unit": "%"}, {"measurement": "viability, T/C", "setting": "[7]", "value": 69.3, "unit": "%"}, {"measurement": "viability, T/C", "setting": "[8]", "value": 16.2, "unit": "%"}, {"measurement": "viability, T/C", "setting": "[9]", "value": 5.6, "unit": "%"}, {"measurement": "viability, T/C", "setting": "[10]", "value": 3.72, "unit": "%"}, {"measurement": "viability, T/C", "setting": "[11]", "value": 3.57, "unit": "%"}, {"measurement": "viability, T/C", "setting": "[12]", "value": 2.68, "unit": "%"}, {"measurement": "viability, T/C", "setting": "[13]", "value": 60.5, "unit": "%"}, {"measurement": "viability, T/C", "setting": "[14]", "value": 16.4, "unit": "%"}, {"measurement": "viability, T/C", "setting": "[15]", "value": 5.61, "unit": "%"}, {"measurement": "viability, T/C", "setting": "[16]", "value": 3.98, "unit": "%"}, {"measurement": "viability, T/C", "setting": "[17]", "value": 3.56, "unit": "%"}, {"measurement": "viability, T/C", "setting": "[18]", "value": 2.61, "unit": "%"}, {"measurement": "viability, T/C", "setting": "[19]", "value": 70.6, "unit": "%"}, {"measurement": "viability, T/C", "setting": "[20]", "value": 15.2, "unit": "%"}, {"measurement": "viability, T/C", "setting": "[21]", "value": 6.24, "unit": "%"}, {"measurement": "viability, T/C", "setting": "[22]", "value": 4.01, "unit": "%"}, {"measurement": "viability, T/C", "setting": "[23]", "value": 3.75, "unit": "%"}, {"measurement": "viability, T/C", "setting": "[24]", "value": 3.12, "unit": "%"}, {"measurement": "viability, T/C", "setting": "[25]", "value": 72.8, "unit": "%"}, {"measurement": "viability, T/C", "setting": "[26]", "value": 23.1, "unit": "%"}, {"measurement": "viability, T/C", "setting": "[27]", "value": 5.89, "unit": "%"}, {"measurement": "viability, T/C", "setting": "[28]", "value": 4.04, "unit": "%"}, {"measurement": "viability, T/C", "setting": "[29]", "value": 3, "unit": "%"}, {"measurement": "viability, T/C", "setting": "[30]", "value": 3.74, "unit": "%"}, {"measurement": "viability, T/C", "setting": "[31]", "value": 73.9, "unit": "%"}, {"measurement": "viability, T/C", "setting": "[32]", "value": 16.9, "unit": "%"}, {"measurement": "viability, T/C", "setting": "[33]", "value": 5.59, "unit": "%"}, {"measurement": "viability, T/C", "setting": "[34]", "value": 3.74, "unit": "%"}, {"measurement": "viability, T/C", "setting": "[35]", "value": 3.56, "unit": "%"}, {"measurement": "viability, T/C", "setting": "[36]", "value": 2.98, "unit": "%"}]}
{"smiles": "CC1COCCN1c1cc(C2(S(C)(=N)=O)CC2)nc(-c2ccnc3[nH]ccc23)n1", "note": "(centres undefined) + Nc1ccc(C#CCN(C(=O)Cc2ncc(C(F)(F)F)cc2C(F)(F)F)c2ccc(F)cc2)nn1", "values": [{"measurement": "IC50", "setting": "second compound 0.0316 µM", "value": 0.313, "unit": "µM"}, {"measurement": "IC50", "setting": "second compound 0.1 µM", "value": 0.437, "unit": "µM"}, {"measurement": "IC50", "setting": "second compound 0.316 µM", "value": 0.409, "unit": "µM"}, {"measurement": "IC50", "setting": "second compound 1 µM", "value": 0.487, "unit": "µM"}, {"measurement": "IC50", "setting": "second compound 3.16 µM", "value": 0.471, "unit": "µM"}, {"measurement": "IC50", "setting": "second compound 10 µM", "value": 0.306, "unit": "µM"}, {"measurement": "viability, T/C", "setting": "[1]", "value": 83.3, "unit": "%"}, {"measurement": "viability, T/C", "setting": "[2]", "value": 74.2, "unit": "%"}, {"measurement": "viability, T/C", "setting": "[3]", "value": 48.2, "unit": "%"}, {"measurement": "viability, T/C", "setting": "[4]", "value": 25.8, "unit": "%"}, {"measurement": "viability, T/C", "setting": "[5]", "value": 8.98, "unit": "%"}, {"measurement": "viability, T/C", "setting": "[6]", "value": 4.09, "unit": "%"}, {"measurement": "viability, T/C", "setting": "[7]", "value": 83.5, "unit": "%"}, {"measurement": "viability, T/C", "setting": "[8]", "value": 82.1, "unit": "%"}, {"measurement": "viability, T/C", "setting": "[9]", "value": 60.7, "unit": "%"}, {"measurement": "viability, T/C", "setting": "[10]", "value": 21.9, "unit": "%"}, {"measurement": "viability, T/C", "setting": "[11]", "value": 8.16, "unit": "%"}, {"measurement": "viability, T/C", "setting": "[12]", "value": 4.21, "unit": "%"}, {"measurement": "viability, T/C", "setting": "[13]", "value": 99.9, "unit": "%"}, {"measurement": "viability, T/C", "setting": "[14]", "value": 86.6, "unit": "%"}, {"measurement": "viability, T/C", "setting": "[15]", "value": 57.8, "unit": "%"}, {"measurement": "viability, T/C", "setting": "[16]", "value": 24.6, "unit": "%"}, {"measurement": "viability, T/C", "setting": "[17]", "value": 7.24, "unit": "%"}, {"measurement": "viability, T/C", "setting": "[18]", "value": 5.14, "unit": "%"}, {"measurement": "viability, T/C", "setting": "[19]", "value": 86.9, "unit": "%"}, {"measurement": "viability, T/C", "setting": "[20]", "value": 87.2, "unit": "%"}, {"measurement": "viability, T/C", "setting": "[21]", "value": 67.6, "unit": "%"}, {"measurement": "viability, T/C", "setting": "[22]", "value": 20.4, "unit": "%"}, {"measurement": "viability, T/C", "setting": "[23]", "value": 7.25, "unit": "%"}, {"measurement": "viability, T/C", "setting": "[24]", "value": 5.6, "unit": "%"}, {"measurement": "viability, T/C", "setting": "[25]", "value": 95.7, "unit": "%"}, {"measurement": "viability, T/C", "setting": "[26]", "value": 83.7, "unit": "%"}, {"measurement": "viability, T/C", "setting": "[27]", "value": 66, "unit": "%"}, {"measurement": "viability, T/C", "setting": "[28]", "value": 22.3, "unit": "%"}, {"measurement": "viability, T/C", "setting": "[29]", "value": 6.64, "unit": "%"}, {"measurement": "viability, T/C", "setting": "[30]", "value": 4.14, "unit": "%"}, {"measurement": "viability, T/C", "setting": "[31]", "value": 86.6, "unit": "%"}, {"measurement": "viability, T/C", "setting": "[32]", "value": 76.3, "unit": "%"}, {"measurement": "viability, T/C", "setting": "[33]", "value": 48.1, "unit": "%"}, {"measurement": "viability, T/C", "setting": "[34]", "value": 23.1, "unit": "%"}, {"measurement": "viability, T/C", "setting": "[35]", "value": 5.64, "unit": "%"}, {"measurement": "viability, T/C", "setting": "[36]", "value": 5.25, "unit": "%"}]}
